Assay results reported in ChEMBL document CHEMBL1201862, “PubChem BioAssay data set” (2004).
Activity calls are given as the source filed them. For most assays here, no stated cut-off is given here; in the data, actives have a measured EC50 and inactives only a lower limit.

How the values were obtained:
[1] = luciferase reporter signal suppression in cells – H4 neuroglioma cells, luminescence, dose response (AID 1990); assay type: functional, cell-based
[2] = tested on: Streptococcus sp. 'group A'; assay: Streptococcus pyogenes SK(-)GAS viability under kanamycin – luminescence, BacTiterGlo, confirmation, counter-screen for streptokinase expression inhibitor project, dose response (AID 1900); assay type: functional, organism-based
[3] = tested on: BJ; assay: BJ-TERT fibroblast viability loss – cell-based, RAS-independent, luminescence, dose response (AID 1933); assay type: functional; settings: Homo sapiens
[4] = Luminescence Cell-Based Dose Response HTS to Identify Inhibitors of 5'UTR Stem-Loop Driven Prion Protein mRNA Translation in H4 Neuroglioblastoma Cells. [Related pubchem assays: 1827 (Project Summary), 1813 (Primary HTS)]; assay type: functional
[5] = tested on: BJ; assay: cells; assay type: functional, cell-based; settings: Homo sapiens
[6] = Trypanosoma cruzi growth suppression in host cells – NIH3T3 host cells, beta-gal luminescence, confirmation (AID 2044); assay type: functional, cell-based;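 further: intracellular parasites grown in NIH/3T3 mouse fibroblasts as host cells; luminescent beta-galactosidase reporter signal from transgenic T. cruzi replicating inside host cells; inhibitors lower the luminescence signal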
[7] = Luminescence-based dose response cell-based high throughput screening assay for cytotoxic compounds using the IEC-6 intestinal epithelial cell line. [Related pubchem assays: 1858 (Summary AID.), 1825 (Counterscreen.), 1907 (Confirmation screen.)]; assay type: functional
[8] = NIH3T3 cell viability loss – ATP luminescence, mouse fibroblasts, counter-screen, dose response (AID 2010); assay type: functional, cell-based;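 further: cells exposed to compound for about 90 hours before reading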
[9] = tested on: BJ; assay: BJ-TERT-LT-ST fibroblast viability loss – cell-based, RAS-independent, luminescence, dose response (AID 1935); assay type: functional; settings: Homo sapiens;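 further: BJ fibroblasts immortalized with TERT plus LT and ST oncogenes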
[10] = DRD fibroblast viability loss – cell-based, non-viral oncogenic, luminescence, dose response (AID 1934); assay type: functional; settings: Homo sapiens
[11] = tested on: Streptococcus; assay: GAS UMAA2166 growth inhibition – luminescence, BacTiterGlo, counter-screen for streptokinase expression inhibitor project, dose response (AID 1915); assay type: functional, organism-based;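 further: potency for reduction of bacterial viability or growth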
[12] = target: T1, Streptokinase A (Streptococcus pyogenes serotype M1, UniProt P10520); assay: Absorbance Microorganism-Based Dose Response Follow up to Identify Inhibitors of Streptokinase Expression. [Related pubchem assays: 1677 (Project Summary), 1915, 1914, 1902 (Retest at Dose), 1900 (Counter Screen), 1662 (Primary HTS)]; assay type: functional, Streptococcus pyogenes M1 GAS
T1 sequence (P10520 whole entry): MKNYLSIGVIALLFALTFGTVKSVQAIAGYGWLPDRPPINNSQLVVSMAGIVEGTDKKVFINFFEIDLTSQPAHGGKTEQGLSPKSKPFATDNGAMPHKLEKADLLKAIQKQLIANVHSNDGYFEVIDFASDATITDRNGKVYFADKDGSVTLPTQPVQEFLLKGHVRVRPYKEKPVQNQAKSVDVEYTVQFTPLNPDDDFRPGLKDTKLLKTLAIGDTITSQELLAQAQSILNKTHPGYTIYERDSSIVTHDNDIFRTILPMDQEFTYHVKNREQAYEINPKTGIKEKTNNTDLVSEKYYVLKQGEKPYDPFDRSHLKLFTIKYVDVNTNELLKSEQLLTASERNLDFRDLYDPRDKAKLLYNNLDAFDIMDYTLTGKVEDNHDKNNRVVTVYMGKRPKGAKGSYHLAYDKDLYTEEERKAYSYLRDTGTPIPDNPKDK

[13] = tested on: Streptococcus; assay: GAS bacterial viability reduction – luminescence, BacTiter-Glo, strain UMAA2166, counter-screen for streptokinase expression inhibitor project, dose response (AID 2477); assay type: functional, organism-based
[14] = Luminescence Cell-Based Dose Confirmation HTS to Identify Activators of 5'UTR Stem-Loop Driven Alpha-Synuclein mRNA Translation in H4 Neuroglioblastoma Cells. [Related pubchem assays: 1829 (Project Summary), 1814 (Primary HTS)]; assay type: functional
[15] = Luminescence Cell-Based Dose Response HTS to Identify Activators of Luciferase Translation or Activity in H4 […] Cells. [Related pubchem assays: 1829 (Project Summary), 1814 (Primary HTS)]; assay type: functional
[16] = tested on: H4; assay: Luminescence Cell-Based Dose Response HTS to Identify Activators of 5'UTR Stem-Loop Driven Prion Protein mRNA Translation in H4 Neuroglioblastoma Cells. [Related pubchem assays: 1829 (Project Summary), 1814 (Primary HTS)]; assay type: functional; settings: Homo sapiens
[17] = target: T2, Mannose-6-phosphate isomerase (Homo sapiens, UniProt P34949); assay: MPI enzyme activity inhibition – biochemical, fluorescence intensity, coupled assay, primary screen (AID 1209)
T2 sequence (P34949 whole entry): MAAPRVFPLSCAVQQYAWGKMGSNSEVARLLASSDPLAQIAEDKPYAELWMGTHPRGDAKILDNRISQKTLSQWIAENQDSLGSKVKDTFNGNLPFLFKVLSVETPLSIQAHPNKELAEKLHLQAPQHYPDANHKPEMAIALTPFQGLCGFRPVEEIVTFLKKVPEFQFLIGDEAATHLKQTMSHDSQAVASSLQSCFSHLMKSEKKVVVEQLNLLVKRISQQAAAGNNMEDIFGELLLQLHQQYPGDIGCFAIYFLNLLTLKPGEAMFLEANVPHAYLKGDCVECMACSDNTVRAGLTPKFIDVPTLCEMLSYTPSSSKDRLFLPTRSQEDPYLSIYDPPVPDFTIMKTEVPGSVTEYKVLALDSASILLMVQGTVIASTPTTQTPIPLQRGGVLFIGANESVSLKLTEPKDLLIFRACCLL

[18] = target: T2, Mannose-6-phosphate isomerase; assay: MPI inhibition at elevated mannose 6-phosphate – biochemical, fluorescence intensity, high mannose 6-phosphate, primary screen (AID 1220)
[19] = mitochondrial function rescue without frataxin homolog – Friedreich's ataxia, plus single-dose screen, dose response (AID 1465); assay type: functional;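 further: yeast depleted of Yfh1p frataxin homolog grown on glycerol needing respiration; WST-1 tetrazolium dye reduction as measure of cellular dehydrogenase metabolic activity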

For `COc1ccccc1-c1nnc(Nc2nc3c(OC)cccc3s2)o1`, the EC50 [1] was 8.66 µM (inconclusive), the EC50 [2] was 1.67 µM (active) and the EC50 [3] was 0.904 µM (active). The EC50 [4] was 5.65 µM (active), the EC50 [5] was 0.635 µM (active) and the EC50 [6] was 0.559 µM (active). For the same compound, the IC50 [7] was 0.886 µM (active), the EC50 [8] was 0.576 µM (active) and the EC50 [9] was 0.457 µM (inconclusive). The EC50 [10] was 28.9 µM (inconclusive) and the EC50 [11] was > 150 µM (inconclusive).

With `COc1ccc(S(=O)(=O)c2ccc(NC(=O)c3ccccc3Cl)cc2C#N)cc1` the EC50 [12] was 5.44 µM (active) and the EC50 [13] was 40.5 µM (active).

For `c1ccc(-c2cc(N3CCCCCC3)n[nH]2)cc1`, the EC50 [14] was 5.19 µM (active), the EC50 [15] was 30.9 µM (active) and the EC50 [16] was 9.81 µM (active). For the same compound, the IC50 [17] was > 50 µM (not active) and the IC50 [18] was > 50 µM (not active).

For `COc1cccc(N/N=C2\C(=O)Nn3c2nc2c(c3=O)CCC2)c1`, the EC50 [19] was > 100 µM (active).
